Test results: article PMC8910629, “Design, Synthesis, and Anticancer Activity of a Selenium-Containing Galectin-3 and Galectin-9N Inhibitor” (International Journal of Molecular Sciences, 2022)
“And” between values parts separate entries of the source, which are not always exact repeats. Equal entries are not always repeated.

What was measured:
Gal-9N^CRD = biological target: T1, Gal-9N^CRD (Homo sapiens, UniProt O00182); assay: Isothermal titration calorimetry with Gal-9N CRD; type: binding; settings: ITC
T1 construct: Gal-9N^CRD (amino acid residues 1–148) were cloned into the vector pETM11; polyHis-tag (TEV-cleavable, from pETM11) (N); made in house; host or cells: Escherichia coli BL21(DE3)GOLD
Procedure: (§1) The two proteins were cloned into pETM11 expression vector with a N-terminal polyHis-tag that is removable by TEV protease. The recombinant vectors pETM11-gal3^CRD and pETM11-gal9^CRD were used to transform E. coli BL21(DE3)GOLD cells and a single colony was grown overnight at 37 °C in 20 mL of LB medium. In total, 10 mL of the saturated cultures were transferred in 1 L of LB medium and grown at 37 °C to 0.8 OD 600 nm before induction with IPTG (0.5 mM). The inductions were kept for 16 and for 3 h at 22 °C in the expression of Gal-3^CRD and Gal-9N^CRD, respectively. The cells were harvested by centrifugation, re-suspended in 30 mL of lysis buffer (20 mM NaP, 500 mM NaCl, 10 mM imidazole pH 7.0 for Gal-3^CRD and pH 7.5 Gal-9N^CRD), and sonicated. […] Elution was carried out with 300 mM imidazole. Fractions containing the recombinant protein were, finally, applied onto a Superdex 75 10/300 column (GE Healthcare), connected to an AKTA system (GE Healthcare) pre-equilibrated in 20 mM NaP, 150 mM NaCl pH 7.0 for the purification of Gal-3^CRD and pH 7.5 for Gal-9N^CRD.
(§2) The purified proteins were used to perform interaction studies. […] Before all titrations, molecules were dissolved in 20 mM NaP, 150 mM NaCl pH 7.0 (when the molecules were assayed against Gal-3^CRD) or pH 7.5 (for Gal-9N^CRD). The sample cell was filled with 280 μL of Gal-3^CRD or Gal-9N^CRD. Molecules were injected in a volume of 0.2 μL for the first injection and 1 μL for the next 39 injections using an injection interval of 150 s. The control experiment, obtained by injection of the same amount of each molecule in buffer solution, was subtracted to correct for heat production upon molecules dilution. All data were analyzed and fitted using the Microcal Origin version 7.0 software package. Binding enthalpy, dissociation constants, and stoichiometry were determined by fitting the data using a one-set-of-site-binding model.

galectins = settings: cited from earlier work
Gal-1 = system: Gal-1; design: method as in PMID 27356186; settings: cited from earlier work
Gal-3 = settings: cited from earlier work
Gal-3^CRD = biological target: T2, Gal-3^CRD (Homo sapiens, UniProt P17931); assay: Isothermal titration calorimetry with Gal-3 CRD; type: binding; settings: ITC, 298 K
T2 construct: The genes encoding Gal-3^CRD (amino acid residues 112–250); polyHis-tag (TEV-cleavable, from pETM11) (N); made in house; host or cells: Escherichia coli BL21(DE3)GOLD
Procedure: as §1, §2

WM266 cells [1] = assay: Wound healing scratch assay; type: cell-based, human
Procedure: Analysis of cell migration in vitro has been carried out by using the wound healing scratch assay. WM266 cells were grown until they reached a confluent monolayer. After, they were linearly scratched with a pipette tip to generate a cell-free space. […] The area related to each incision was photographed at the time 0, 24, and 48 h using a phase contrast optical microscope with a 10× magnification (Zeiss). The distance between the edges of the incisions was measured by AxioVision Rel. 4.8 software and its mean value was determined as follows: wound closure (%) = 1 − (wound width tx/wound width t0) × 100. Bars depict mean ± SE of three independent experiments.

WM266 cells [2] = assay: Transwell invasion assay; type: cell-based, human; settings: 24 h, SeDG
Procedure: To analyze cell invasion, the surface of a filter membrane of a transwell insert was coated with extracellular matrix (ECL) (Millipore). Cells (5 × 10^4) suspended in 100 μL of serum-free medium were incubated with various concentrations of molecules and successively they were seeded onto the upper compartment of the transwell, whereas the lower chambers were filled with medium containing 10% FCS [65]. After 24 h, the cells were fixed with 10% formalin and stained with crystal violet. The remaining cells in the upper side of the transwell were removed and cells on the undersurface of the filters, the invaded cells, were visualized and counted from six randomly selected fields (10× magnification) under a phase-contrast microscope with AxioVision Rel.

HuVec cells = assay: Angiogenesis (capillary tube formation) assay; type: cell-based, human; settings: SeDG at 2.5 mM
Procedure: Angiogenesis assay was performed by using “In Vitro Angiogenesis Assay Kit” (Merck, Burlington, MA, USA). Briefly, 100 μL of ECL were plated in a pre-cooled 96-well plate and incubated for 1 h at 37 °C. 10,000 cells (HuVec), suspended in EGM-2 [66], incubated with digalactosyl selenides, and seeded onto solidified matrix, according to manufacturer’s instructions. After 5–6 h of incubation at 37 °C, the tube formation was examined by means of a phase contrast optical microscope (Axiovert 200 Zeiss) at 10× magnification and the branch point number was calculated from 3 random fields per each treatment.

tumor cell proliferation = system: tumor cell proliferation; design: method as in doi:10.1039/D1QO00045D; settings: even at 2 mM concentration; cited from earlier work

T1 sequence (O00182 1-148): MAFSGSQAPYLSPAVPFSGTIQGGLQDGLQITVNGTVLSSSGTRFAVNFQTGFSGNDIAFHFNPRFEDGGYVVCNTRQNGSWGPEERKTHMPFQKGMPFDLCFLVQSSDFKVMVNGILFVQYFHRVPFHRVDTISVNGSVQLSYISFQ

Question: Which “binding of lactose (functional integrity of protein)” value (Gal-9N^CRD; Figure S2) does the source give for OC[C@H]1O[C@@H](O[C@H]2[C@H](O)[C@@H](O)C(O)O[C@@H]2CO)[C@H](O)[C@@H](O)[C@H]1O (mixture of isomers) [lactose] here?
Answer: able to bind lactose

Question: What about the “binding affinities to galectins” value (galectins) of the same molecule?
Answer: high micromolar range

Question: For CC(=O)N[C@H]1C(O)O[C@H](CO)[C@@H](O[C@@H]2O[C@H](CO)[C@H](O)[C@H](O)[C@H]2O)[C@@H]1O (some centres unmarked) [LacNAc, N-acetyllactosamine], which “binding affinities to galectins” value (galectins) is on record?
Answer: high micromolar range

Question: Which binding affinity (Gal-1) does the source give for OC[C@H]1O[C@@H](S[C@@H]2O[C@H](CO)[C@H](O)[C@H](n3cc(-c4cccc(F)c4)nn3)[C@H]2O)[C@H](O)[C@@H](n2cc(-c3cccc(F)c3)nn2)[C@H]1O [TD139] here?
Answer: nanomolar affinity

Question: And the binding affinity (Gal-3)?
Answer: nanomolar affinity

Question: Which affinity to galectins (galectins) does the source give for OC[C@H]1O[C@@H](S[C@@H]2O[C@H](CO)[C@H](O)[C@H](O)[C@H]2O)[C@H](O)[C@@H](O)[C@H]1O [TDG, β-D-galactopyranosyl-(1-1)-thio-β-D-galactopyranoside] here?
Answer: same affinity to galectins as lactose

Question: Which “n (stoichiometry)” value (Gal-3^CRD) does the source give for digalactosyl selenide [SeDG] here?
Answer: 1.09 ± 0.05

Question: What about the ΔG (Gal-3^CRD) of the same molecule?
Answer: -6.31 kcal/mol

Question: What about the ΔH (Gal-3^CRD) of the same molecule?
Answer: -4.32 ± 0.27 kcal/mol

Question: What about the “−TΔS” value (Gal-3^CRD) of the same molecule?
Answer: -1.99 kcal/mol

Question: What about the Kd (Gal-3^CRD; pH 7.0) of the same molecule?
Answer: 20.2 ± 2.2 µM

Question: What about the “n (stoichiometry)” value (Gal-9N^CRD; 298 K) of the same molecule?
Answer: 1.01 ± 0.05

Question: What about the ΔH (Gal-9N^CRD; 298 K) of the same molecule?
Answer: -5.64 ± 0.36 kcal/mol

Question: And the “−TΔS” value (Gal-9N^CRD; 298 K)?
Answer: -1.46 kcal/mol

Question: What about the Kd (Gal-9N^CRD; 298 K, pH 7.5) of the same molecule?
Answer: ~20 µM and 22.4 µM

Question: What about the wound closure (WM266 cells [1]; WM266, SeDG at 1 and 2.5 mM, 24 and 48 h, vs untreated) of the same molecule?
Answer: decreased the wound closure at all used concentrations and time intervals

Question: And the “WM266 invasion through extracellular matrix” value (WM266 cells [2])?
Answer: able to reduce the cells invasion but only at millimolar concentrations

Question: What about the “change of capillary tube formation” value (HuVec cells) of the same molecule?
Answer: non-statistically significant change

Question: And the “effect on tumor cell proliferation” value (tumor cell proliferation)?
Answer: unable to affect tumor cell proliferation

B1: Gal-3^CRD: recombinant carbohydrate recognition domain of galectin 3 (residues 112–250), used as cell motility stimulator (protein, UniProt P17931 112-250, looked up, fragment)
chain: GPLIVPYNLPLPGGVVPRMLITILGTVKPNANRIALDFQRGNDVAFHFNPRFNENNRRVIVCNTKLDNNWGREERQSVFPFESGKPFKIQVLVEPDHFKVAVNDAHLLQYNHRVKKLNEISKLGISGDIDLTSASYTMI
modifications: carbohydrate recognition domain
notes: recombinant carbohydrate recognition domain of galectin 3 (residues 112–250), used as cell motility stimulator
Question: With B1 as the molecule, how does the “cell migration (wound closure) vs control” value (WM266 cells [1]; WM266, 50 µM Gal-3^CRD) read?
Answer: migrate more than in the control
